Results as given in US20080311589A1, “METHOD OF HIGH-THROUGHPUT SCREENING OF MOLECULES AND COMPOUNDS FOR THEIR EFFECTS ON BIOLOGICAL AND CHEMICAL PROCESSES” (priority 1999, published 2008).
“Also recorded” adds a separate entry of the source.

Legend:
[1] = system: A549 human lung carcinoma cells; assay: phosphonucleolin cytoblot, suppressors of G2-arresting agents; format: cell-based; conditions: for prevention of nocodazole mitotic arrest: simultaneous addition with 250 nM nocodazole, 14 μM ICRF-193, 20 μM roscovitine
Procedure: (§1) FIG. 11. Cytoblots can be used to screen for small molecule suppressors of anti-proliferative agents using the presence of phosphonucleolin, and for small molecules that induce exit from mitosis using the absence of phosphonucleolin. […] A549 human lung carcinoma cells were seeded at a density of 4000 cells in 40 μL of DMEM+ in each well of an opaque 384-well plate and incubated for 24 hours at 37° C. with 5% CO2. […] Cells were then incubated for 18 hours at 37° C. with 5% CO2 and a phosphonucleolin cytoblot was performed. (c) HeLaS3 cells were seeded at a density of 4000 cells in 40 μL of DMEM+ in each well of an opaque 384-well plate and incubated for 24 hours at 37° C. with 5% CO2. Cells were either left untreated or treated with 554 nM nocodazole for 14 hours to arrest cells in mitosis. Roscovitine was then added to the final concentrations indicated in a final volume of 50 μL and cells were incubated for 4 hours at 37° C. with 5% CO2. Finally, BrdU was added to a final concentration of 10 μM to those wells that were assayed for BrdU incorporation, and the cells incubated for an additional 6 hours at 37° C. with 5% CO2. BrdU and phosphonucleolin cytoblots were performed. […] HeLa cells were seeded at a density of 4000 cells per well in 40 μL of DMEM+ in each well of an opaque 384 well plate and incubated overnight at 37° C. with 5% CO2. Cells were then treated with either an equivalent amount of DMSO or nocodazole to a final concentration of 415 nM and the cells incubated for an additional 14 hours at 37° C. with 5% CO2. Roscovitine was then added to the final concentrations indicated and final volume of 50 μL and cells incubated for 4 hours 37° C. with 5% CO2. Finally, BrdU was added to a final concentration of 10 μM to those wells the be assayed for BrdU incorporation and the cells incubated for an additional 6 hours at 37° C. with 5% CO2. BrdU and TG-3 cytoblots were performed (see Protocols). Wells are shown magnified 4×. […] A549 human lung carcinoma cells were seeded at a density of 4000 cells in 40 uL of DMEM+ in each well of an opaque 384 well plate and incubated for 24 hours at 37° C. with 5% CO2. […] Cells were then incubated for 18 hours at 37° C. with 5% CO2 and a TG-3 cytoblot performed (see Protocol).
These purine analogs are known to be non-specific competitive inhibitors of 5′-adenosine triphosphate binding and therefore are likely to inhibit a wide range of kinases in the cell.

[2] = system: Mv1Lu mink lung epithelial cells; assay: 384 well anti-BrdU cytoblot; format: cell-based; conditions: 384-well plate; antiproliferative agents 24 hours, then 10 μM BrdU 16 hours (FIG. 2)
From the text: FIG. 1. An immunodetection assay for DNA synthesis in high density arrays of mammalian cells. (a) Cartoon depiction of an anti-BrdU cytoblot. The thymine analog 5-bromodeoxyuridine (BrdU) is incorporated into the DNA of cells that are actively replicating their DNA. The cells are in the well, and BrdU is detected with a two step antibody binding procedure. The second antibody is conjugated to the enzyme horseradish peroxidase. In the presence of the chemiluminescent substrate luminol as well as hydrogen peroxide, light of wavelength 428 nm is generated. The light emission can be detected by exposing the plate to film. (b) A cytoblot can detect TGF-β's ability to prevent BrdU incorporation in mink lung epithelial cells. 2000 Mv1Lu mink lung epithelial cells were seeded in each well of a white, opaque 384 well plate. The cells were seeded in the indicated concentrations of TGF-β in 50 μL of DMEM with 1% fetal bovine serum (FBS), 100 units/mL penicillin G sodium, 100 μg/mL streptomycin sulfate and 100 μM each of the amino acids alanine, aspartic acid, glutamine, glycine, asparagine and proline (referred to throughout as 1% mink medium) and allowed to incubate at 37° C. with 5% CO2. After 16 hours, 5.5 μL of 100 μM BrdU in 1% mink medium was added to each well, for a final concentration of 10 μM BrdU. The cells were incubated at 37° C. with 5% CO2 for an additional 16 hours and then an anti-BrdU cytoblot protocol was performed (see protocol). Wells shown are magnified 4×.
FIG. 2. A cytoblot can detect the ability of numerous antiproliferative agents to inhibit BrdU incorporation. 2000 Mv1Lu mink lung epithelial cells were seeded in each well of a white, opaque 384 well plate. The cells were seeded in 40 μL of 1% mink media and immediately 40 μL of 2× stocks of the reagents shown was added to each well and the cells were allowed to incubate at 37° C. with 5% CO2. After 24 hours, 9 μL of 100 μM BrdU in 1% mink medium was added to each well, for a final concentration of 10 μM BrdU. The cells were incubated at 37° C. with 5% CO2 for an additional 16 hours and then an anti-BrdU cytoblot protocol was performed (see protocol). Wells shown are magnified 2.5×.
The ability of the cytoblot assay to detect changes in DNA synthesis was tested by measuring the incorporation of 5-bromodeoxyuridine (BrdU, Sigma Corporation, St. Louis, Mo., Cat.# B9285) into DNA in the presence or absence of the anti-mitogen transforming growth factor β (TGF-β). Mink lung cells, which are responsive to TGF-β, were seeded into each well of an opaque, white 384-well plate. The cells were subsequently treated with varying concentrations of TGF-β for 16 hours and then with 10 μM BrdU for 16 hours. […] The following protocols provide experimental detail. […]

HeLaS3 cells = assay: BrdU and phosphonucleolin cytoblots in nocodazole-arrested HeLa cells; format: cell-based, human
Procedure: as §1
It should also be possible to find small molecules that induce exit from mitosis, resulting in a reduction in phosphonucleolin levels. As the nocodazole-induced arrest of cells in mitosis requires cyclin-dependent kinase (CDK) activity for the activation of the spindle assembly checkpoint, inhibition of CDK activity should suppress nocodazole-induced mitotic arrest (FIG. 11a). […]

[3] = system: hyperacetylated histone H4; assay: 384 well anti-acetylated histone H4 cytoblot; format: cell-based, human; conditions: A549 cells; 300 nM trichostatin A, 100 nM trapoxin, 24 hours
Procedure: FIG. 5. An immunodetection assay for the accumulation of hyperacetylated histone H4 in high density arrays of mammalian cells. A549 human lung carcinoma cells were seeded at a density of 4000 cells in 40 μL of DMEM+ in each well of an opaque 384 well plate and incubated overnight at 37° C. with 5% CO2. Cells were either untreated, washed once and treated with 0.5% serum, 80 pM TGF-β, 300 nM trichostatin A, 100 nM trapoxin or 250 nM nocodazole and incubated for 24 hours at 37° C. with 5% CO2 in a final volume of 50 μL. A cytoblot was performed (see Protocol) and the presence of the hyperacetylated form of histone H4 was detected using a two step antibody binding procedure using an anti-acetylated H4 antibody and a secondary antibody conjugated to the enzyme horseradish peroxidase. Wells are shown magnified 25×.
Any post-translational modification that can be recognized by an antibody (or ligand) may be used in a cytoblot screen. […] In addition, antibodies against the phosphorylated form of nucleolin (FIG. 6a) or histone H3 (FIG. 6b) were used to detect the presence of phosphonucleolin or phosphohistone H3 respectively, both of which server as biochemical markers of the mitotic state of cells (Anderson et al. Experimental Cell Research 238: 498-502 1998; Vincent et al. J. Cell. Biol. 132:413-425. 1996)). The following protocol provides experimental detail. […]

[4] = system: mink lung epithelial cells; assay: BrdU cytoblot assay for S-phase progression; format: cell-based
From the text: BRDU CYTOBLOT ASSAY: The BrdU cytoblot assay for S-phase progression was described previously by Stockwell et al. (Chem. Biol. 6:71, 1999; see also, U.S. Patent Application Ser. No. 60/094,305, incorporated herein by reference).
Compounds that mimic TGFβ activity would be expected to be capable of inducing cell cycle arrest or apoptosis, and in particular to block DNA replication, in responding cells. We therefore used an S-phase progression cytoblot assay to test whether our compounds could inhibit 5-bromodeoxyuridine (BrdU) incorporation into mink epithelial cells. […] Both compounds were therefore classified as true TGFβ mimics.

## Nc1ncc2[nH]cnc2n1 [2-aminopurine]
[1]; 1 mM 2-aminopurine or 2 mM caffeine with ICRF-193 and 250 nM nocodazole, 18 hours
  suppression of ICRF-193-induced G2 arrest: prevented the arrest in response to ICRF-193; also recorded: suppress a DNA damage-independent topoisomerase inhibitor-induced G2-checkpoint arrest

## NC(=O)NO [hydroxyurea]
[2]
  BrdU incorporation: effectively prevent BrdU incorporation

## COC(=O)Nc1nc2ccc(C(=O)c3cccs3)cc2[nH]1 [nocodazole]
[2]
  BrdU incorporation: effectively prevent BrdU incorporation
[1]; 250 nM nocodazole, 18 hours
  mitotic arrest (phosphonucleolin): arrested in mitosis
HeLaS3 cells; HeLa cells, nocodazole 415 nM
  accumulation of phosphonucleolin: induces the accumulation of phosphonucleolin
  incorporation of BrdU: prevents the incorporation of BrdU

## CC[C@H](CO)Nc1nc(NCc2ccccc2)c2ncn(C(C)C)c2n1 [roscovitine]
[1]
  prevention of nocodazole mitotic arrest: prevented this mitotic arrest
HeLaS3 cells; nocodazole 14 hours, then roscovitine
  exit from nocodazole-induced arrest (disappearance of phosphonucleolin): cells exited from the nocodazole-induced arrest; also recorded: suppresses only the accumulation of phosphonucleolin
HeLaS3 cells; nocodazole 14 hours, then roscovitine, 10 μM BrdU 6 hours
  BrdU incorporation after roscovitine: did not begin to incorporate BrdU

## CC(/C=C/C(=O)NO)=C\[C@@H](C)C(=O)c1ccc(N(C)C)cc1 [trichostatin, trichostatin A]
[3]
  acetylation of histone H4: increase in the acetylation of histone H4

## CuCl2 [Cu^2+]
[4]
  BrdU incorporation: inhibition of BrdU incorporation

## ICRF-193
[1]
  prevention of nocodazole mitotic arrest: prevented this mitotic arrest
